We go through 1 compound from US20190187129A1, “CANCER MODELING PLATFORMS AND METHODS OF USING THE SAME” (Wake Forest University Health Sciences, priority 2016, published 2019).

Common to all, as to format: cell-based
In experiment [1] the test system is Ring constructs made with a Caco2 outer ring and a SW480 core. Put plainly: Concentric ring construct drug treatment (MTS assay, LIVE/DEAD staining). An excerpt:
The first objective of this project was to evaluate a 3D model of a colorectal cancer tumor surrounded by normal host tissue. The engineered concentric ring construct consists of a colorectal tumor core and a colon epithelial outer ring, to model a tumor in a reductionist, yet physiologically relevant environment. This construct was used to measure the growth of the tumor core, any observed invasion of the tumor cells into the epithelial layer, and the efficacy of drugs. The constructs were created with cells suspended in a hyaluronic acid and gelatin-based hydrogel. The tumor cores were made using one of four colorectal cancer cells types, thereby providing models of 4 levels of malignancy. The HCT116 cells were the most malignant, followed by the HT29, SW480, and Caco2 cells. Caco2 cells were also employed in the outer ring, as they best resemble healthy epithelial cells. The tumor core was fluorescently labeled and fluorescent imaging was used to monitor the tumor core over the course of 7-14 days. […] Ring constructs made with a Caco2 outer ring and a SW480 core were also treated with Regorafenib, a chemotherapy agent.

In the next experiment the test system is HCT116 cells. Description: cells. As to conditions: Homo sapiens, HCT-116, read-out: relative cellular viability (MTS, relative to control). Here is the method:
(§1) Cancer cells seeded directly into wells were given 4-5 hours to reattach to the bottom of the wells. After that time, the anticancer drug solutions were administered in place of the media (FIG. 6, panel A) and an MTS assay was carried out 2 days later to determine cell viability. […] At 100 μM concentrations of Regorafenib and Sorafenib, and 100 mM concentrations of 5-FU, cellular viability remained below 20% that of the control for all four of the colorectal cancer cell lines utilized. However, screening with Dabrafenib and Trametinib produced diverging results from the other three anticancer drugs at higher concentrations. […] When treated with 1 mM concentrations of 5-FU, relative cellular viability was approximately 39% for SW480 cells and remained between 10%-22% for the HCT116, HT29, and CACO2 cells. These values were considerably lower than the relative cellular viability values for the lowest concentrations of the other anticancer drugs.
(§2) Cell Seeding: The original 15 mL centrifuge tubes containing the 10 mL of DMEM-10, cells, and trypsin were placed into a centrifuge. The centrifugation setting was 1500 RPM and at maximal acceleration for 5 minutes. After that time, the media and trypsin mixture was aspirated from the tubes, leaving the cell pellets still intact. 5 mL of DMEM-10 was then pipetted into each of the tubes, resuspending the cells in the process. Calculated volumes of the 5 mL cell-media solution were determined to ensure that 25,000 cells of each of the four colorectal cancer cell lines were seeded directly into each of the wells of a polystyrene clear-bottom 96-well plate. 100 μL of DMEM-10 media was then pipetted directly into the wells. The 96-well plates were incubated at 37° C. and 5% CO2 for 5 hours to allow the cells to reattach themselves to the bottom of the wells until media was aspirated and anticancer drug solutions were added.
(§3) Addition of Anticancer Drugs for Screening: The anticolorectal cancer drugs used in this screening included 5-FU, Regorafenib, Sorafenib, Trametinib, and Dabrafenib (Sigma-Aldrich, Missouri, USA)). High concentration drug stock solutions were created with DMSO. Lower concentration drug solutions were created by mixing the anticancer drug stocks with DMEM-10 media. […] drug solutions were generated for 5-FU; 1 μM, 10 μM, and 100 μM drug solutions were generated for Regorafenib, Sorafenib, and Dabrafenib; and 1 nM, 10 nM, and 100 nM drug solutions were generated for Trametinib. Media was carefully aspirated from the wells and 200 μL of the various drug-media solutions were placed into the wells containing cells. Three duplicates were generated for each anticancer drug concentration with each of the different cell types to calculate averages and run statistics on the data generated. Well plates were then incubated at 37° C. and 5% CO2 for […].
(§4) Cell viability assay: Cell viability was determined 48 hours after exposure to the anticancer drug solutions. The viability of the cells was examined by the CellTiter 96® AQueous One Solution Cell Proliferation (MTS) assay (Promega, Wisconsin, USA). The anticancer drug-media solutions were aspirated from the wells and 200 μL of the MTS reagent was carefully pipetted into the wells. The incubation time for the cells with the MTS reagent was approximately 45 minutes. The cell viability assay was performed on another 96-well plate and the absorbance was quantified by the EnVision Multilabel Plate Reader (PerkinElmer, California, USA).

The test system of a further experiment is HT29 cells. Description: cells. As to conditions: Homo sapiens, HT-29, read-out: relative cellular viability (MTS, relative to control). How it is done: as §1, §2, §3, §4
A further experiment has as its system CACO2 cells. Description: cells. The settings on record: Homo sapiens, Caco-2, read-out: relative cellular viability (MTS, relative to control). How it is done:
as §1, §2, §3, §4

For `CNC(=O)c1cc(Oc2ccc(NC(=O)Nc3ccc(Cl)c(C(F)(F)F)c3)c(F)c2)ccn1` [Regorafenib], the “cells targeted within the ring construct (LIVE/DEAD staining)” value in experiment [1] (inner ring versus outer Caco2 cells) was “selectively targeted the inner ring of the construct”. Also, the “amount of viable cells after treatment (MTS assay)” value in experiment [1] (ring construct, Caco2 outer ring, SW480 core) was “decrease in the amount of viable cells”. Further, the viability at 100 µM with HCT116 cells, in the experiment with HT29 cells and in the experiment with CACO2 cells was less than 20% in each case.
